Measured values as given in ChEMBL document CHEMBL1152397, “Cytotoxic and antimycobacterial prenylated flavonoids from the roots of Eriosema chinense” (J Nat Prod, 2009).
Values after ≈ are worked out from the molar mass of the structure shown.

Legend:
[1] = tested on: Mycobacterium tuberculosis; assay: Antimycobacterial activity against Mycobacterium tuberculosis H37Ra after […] by microplate alamar Blue assay; type: functional
NCI-H187 = assay: Cytotoxicity against human NCI-H187 cells by sulforhodamine B assay; type: functional, cell-based
KB = assay: Cytotoxicity against human KB cells by sulforhodamine B assay; type: functional, cell-based
Vero = assay: Cytotoxicity against african green monkey Vero cells by sulforhodamine B assay; type: cell-based; conditions: Chlorocebus sabaeus

Row | Compound | MIC [1] | IC50 (NCI-H187) | IC50 (KB) | IC50 (Vero)
1 | CC(C)=CCc1c2c(c(O)c3c1O[C@H](c1ccc(O)cc1O)CC3=O)C=CC(C)(C)O2 [FLEMICHIN D] | 12.5 µg/mL (≈ 29.6 µM) | 2.1 µg/mL (≈ 4.97 µM) | 3.3 µg/mL (≈ 7.81 µM) | 
2 | CC(C)=CCc1c2c(c(O)c3c1O[C@H](c1ccc(O)cc1)CC3=O)C=CC(C)(C)O2 [LUPINIFOLIN] | 12.5 µg/mL (≈ 30.8 µM) | 6.5 µg/mL (≈ 16 µM) | 2.4 µg/mL (≈ 5.9 µM) | 
3 | COc1cccc2c1C(=O)c1c(O)c3c(c(O)c1C2=O)C[C@@](O)(C(=O)CO)C[C@@H]3O[C@H]1C[C@H](N)[C@H](O)[C@H](C)O1 [DOXORUBICIN] |  | 0.042 µg/mL (≈ 0.0773 µM) | 0.12 µg/mL (≈ 0.221 µM) | 
4 | CC(C)=CCc1c2c(c(O)c3c(=O)c(O)c(-c4ccc(O)cc4)oc13)C=CC(C)(C)O2 [DEHYDROLUPINIFOLINOL] | 12.5 µg/mL (≈ 29.7 µM) | 3.9 µg/mL (≈ 9.28 µM) | 5.8 µg/mL (≈ 13.8 µM) | 11.1 µg/mL (≈ 26.4 µM)
5 | COc1ccc(-c2oc3c(CC=C(C)C)c4c(c(O)c3c(=O)c2O)C=CC(C)(C)O4)cc1 [KHONKLONGINOL F] | 100 µg/mL (≈ 230 µM) | 2.4 µg/mL (≈ 5.52 µM) | 6.7 µg/mL (≈ 15.4 µM) | 7 µg/mL (≈ 16.1 µM)
6 | COc1ccc([C@@H]2CC(=O)c3c(O)c4c(c(CC=C(C)C)c3O2)OC(C)(C)C=C4)c(O)c1 [KHONKLONGINOL H] | 25 µg/mL (≈ 57.3 µM) | 3.3 µg/mL (≈ 7.56 µM) | 5.4 µg/mL (≈ 12.4 µM) | 6.4 µg/mL (≈ 14.7 µM)
7 | NNC(=O)c1ccncc1 [ISONIAZID] | 0.023 µg/mL (≈ 0.168 µM) |  |  | 
8 | CC(C)=CCc1c(O)c2c(c3c1OC(C)(C)C=C3)O[C@H](c1ccc(O)cc1O)CC2=O [ERIOSEMAONE A] | 12.5 µg/mL (≈ 29.6 µM) | 6 µg/mL (≈ 14.2 µM) | 5.8 µg/mL (≈ 13.7 µM) | 
9 | Cc1c2ccncc2c(C)c2c1[nH]c1ccccc12 [ELLIPTECINE] |  | 0.44 µg/mL (≈ 1.79 µM) | 0.37 µg/mL (≈ 1.5 µM) | 
10 | CN[C@@H]1[C@H](O[C@H]2[C@H](O[C@H]3[C@H](O)[C@@H](O)[C@H](N=C(N)N)[C@@H](O)[C@@H]3N=C(N)N)O[C@@H](C)[C@]2(O)C=O)O[C@@H](CO)[C@H](O)[C@H]1O [STREPTOMYCIN] | 0.156 µg/mL (≈ 0.268 µM) |  |  | 
11 | CC(C)=CCc1c2c(c(O)c3c1O[C@H](c1ccc(O)cc1)[C@@H](O)C3=O)C=CC(C)(C)O2 [LUPINIFOLINOL] | 25 µg/mL (≈ 59.2 µM) | 3.5 µg/mL (≈ 8.28 µM) | 1.73 µg/mL (≈ 4.09 µM) | 
12 | COc1ccc([C@H]2Oc3c(CC=C(C)C)c4c(c(O)c3C(=O)[C@H]2O)C=CC(C)(C)O4)cc1 [KHONKLONGINOL B] | 50 µg/mL (≈ 115 µM) | 4.3 µg/mL (≈ 9.85 µM) | 3.8 µg/mL (≈ 8.71 µM) | 6.9 µg/mL (≈ 15.8 µM)
13 | COc1ccc([C@H]2Oc3c(CC=C(C)C)c4c(c(O)c3C(=O)[C@@H]2O)C=CC(C)(C)O4)cc1 [KHONKLONGINOL A] | 25 µg/mL (≈ 57.3 µM) | 3 µg/mL (≈ 6.87 µM) | 3.1 µg/mL (≈ 7.1 µM) | 7.9 µg/mL (≈ 18.1 µM)
